Laboratory results published in patent publication US5876694A, “Azavesamicols” (priority 1997, dated 1999).
Like-named read-outs stand apart in the source and are kept apart here.

Experiments:
Format in all cases: in vivo, male Wistar rats
vesamicol receptor [1] = assay: Ex vivo autoradiography of rat brain; conditions: 3 hrs after iv
Description: Ex-vivo Autoradiographic Studies
Two groups of male Wistar rats (n=2) were used in these experiments. Each animal in the first group received an i.v. injection of (+)-[^125 I]12h (385 uCi in 0.1/ml of 50% aq. EtOH). Similarly, animals in the second group received 330 uCi of (-)-[^125 I]12h (in 0.1 ml of 50% aq. EtOH). After 3 hrs, the animals were sacrificed by decapitation. The brains were carefully removed, embedded in Tissue Tek OCT medium and frozen to […] Twenty micron thick coronal brain slices were subsequently obtained by sectioning rostrocaudally with a Reichert HistoSTAT microtome at -15°. The tissue sections were apposed to Kodak NMC film accompanied by ^125 I-labeled external standards (^125 I-Microscales from Amersham). For delineation of cytoarchitecture, adjacent tissue sections were subjected to Nissl staining.

[2] = Tissue distribution of radiotracer in rats; conditions: for tissue uptake at 5 min / tissue uptake at 0.5 h / tissue uptake at 1 h / tissue uptake at 3 h: rat
Description: Tissue Distribution Experiments
Four groups of male Wistar rats (n=4) weighing 200-350 g were used in these experiments. Each animal received, while under ether anesthesia, an intravenous injection of the radiotracer (3-5 uCi) dissolved in 0.1 mL of 50% aqueous ethanol. At 5, 30, 60 and 180 min post-injection, blood was collected from the anesthetized animal by cardiac puncture, and the animal was immediately sacrificed by cardiectomy. The organs and tissues of interest were harvested, transferred to preweighed tubes and counted in a Beckman gamma counter. The tubes were subsequently reweighed to give the weight of the corresponding tissues. Preweighed tubes containing 1 mL samples of a 1:100 dilution of the injected dose were also counted and used as reference for calculating the tissue accumulation of radioactivity. The accumulation of radiotracer was expressed as a percentage of injected dose per gram of tissue.
The animals were injected intravenously with 4.9 uCi of the radiotracer i
0.1 ml of 50% aq. EtOH.
The animals were injected with 3.7 uCi of the radiotracer in 0.1 ml of 50

vesamicol receptor [3] = assay: Blocking experiment 1: co-injection of (dl)-vesamicol with radiotracer; conditions: 60 min, iv
Description: Two separate experiments each utilizing two groups of male Wistar rats (n=3) were performed.
Experiment 1. Animals in Group 1 (control) each received an intravenous injection of the radiotracer (4.7 uCi in 100 uL of 50% aq. EtOH). […] At 60 min post-injection, the animals were sacrificed and the tissues were harvested as outlined above.
Animals in Group 1 received a single i.v. injection of radiotracer.
Animals in Group 2 were administered with a mixture of the radiotracer an
All animals were sacrificed a
60 min postradiotracer injection.

vesamicol receptor [4] = assay: Blocking experiment 2: effect of vesamicol pretreatment on radiotracer accumulation; conditions: 30 min postradiotracer
Description: (§1) Two separate experiments each utilizing two groups of male Wistar rats (n=3) were performed. […]
(§2) At time = 0, animals in group 1 injected intravenously with vehicle (50%)
(§3) aq. EtOH; 0.2 ml), while animals in group 2 each received an i.v.
(§4) injection of (dl)vesamicol. HCl (1.01 umol/Kg0). After 15 min, both group
(§5) were injected with the radiotracer, allowed to recover and sacrificed 30
(§6) min postradiotracer injection.

[5] = as above; conditions: rat, iv, 2 uCi, 30 min postradiotracer
Description: as §1, §2, §3, §4, §5, §6

[6] = Group 2: with (dl)vesamicol hydrochloride
[7] = Group 2: (dl)vesamicol.HCl 1.01 umol/Kg pretreatment

Compound: O[C@@H]1CCN(Cc2cccc([125I])c2)C[C@H]1N1CCC(c2ccccc2)CC1 (single isomer, unassigned) [(-)-[^125 I]12h, (+)- and (-)-4-hydroxy-1-(3-[I^125]iodobenzyl)-3-(4-phenyl-piperidinyl)piperidine]
- brain regional distribution: cortex, caudate-putamen, hippocampus and red nucleus (vesamicol receptor [1]): high levels of radioactivity
- levels in cortex compared with caudate-putamen (vesamicol receptor [1]): slightly higher than those observed in the caudate-putamen
- Ratio brain/blood ([2]; 5 min, iv): 4.27
- Ratio heart/blood ([2]; 5 min, iv): 6.07
- radioactivity in brain ([2]; 5 min post-injection, iv): 1.67 % of the injected dose
- Ratio brain/blood ([2]; 30 min, iv): 9.06
- Ratio heart/blood ([2]; 30 min, iv): 6.87
- Ratio brain/blood ([2]; 60 min, iv): 8.51
- Ratio heart/blood ([2]; 60 min, iv): 5.97
- Ratio brain/blood ([2]; 180 min, iv): 9.87
- Ratio heart/blood ([2]; 180 min, iv): 5.32
- brain accumulation and retention (in words) ([2]; compared with the (+)-isomer): higher accumulation and longer retention in the brain
- tissue uptake at 5 min ([2]; blood, 5 min, iv, read-out: Tissue distribution, blood): 0.22 %ID/g
- tissue uptake at 0.5 h ([2]; blood, 30 min, iv, read-out: Tissue distribution, blood): 0.11 %ID/g
- tissue uptake at 1 h ([2]; blood, 60 min, iv, read-out: Tissue distribution, blood): 0.1 %ID/g
- tissue uptake at 3 h ([2]; blood, 180 min, iv, read-out: Tissue distribution, blood): 0.1 %ID/g
- tissue uptake at 5 min ([2]; brain, 5 min, iv, read-out: Tissue distribution, brain): 0.92 %ID/g
- tissue uptake at 0.5 h ([2]; brain, 30 min, iv, read-out: Tissue distribution, brain): 0.99 %ID/g
- tissue uptake at 1 h ([2]; brain, 60 min, iv, read-out: Tissue distribution, brain): 0.83 %ID/g
- tissue uptake at 3 h ([2]; brain, 180 min, iv, read-out: Tissue distribution, brain): 0.92 %ID/g
- tissue uptake at 5 min ([2]; gonads, 5 min, iv, read-out: Tissue distribution, gonads): 0.19 %ID/g
- tissue uptake at 0.5 h ([2]; gonads, 30 min, iv, read-out: Tissue distribution, gonads): 0.23 %ID/g
- tissue uptake at 1 h ([2]; gonads, 60 min, iv, read-out: Tissue distribution, gonads): 0.17 %ID/g
- tissue uptake at 3 h ([2]; gonads, 180 min, iv, read-out: Tissue distribution, gonads): 0.2 %ID/g
- tissue uptake at 5 min ([2]; heart, 5 min, iv, read-out: Tissue distribution, heart): 1.32 %ID/g
- tissue uptake at 0.5 h ([2]; heart, 30 min, iv, read-out: Tissue distribution, heart): 0.75 %ID/g
- tissue uptake at 1 h ([2]; heart, 60 min, iv, read-out: Tissue distribution, heart): 0.58 %ID/g
- tissue uptake at 3 h ([2]; heart, 180 min, iv, read-out: Tissue distribution, heart): 0.5 %ID/g
- tissue uptake at 5 min ([2]; kidney, 5 min, iv, read-out: Tissue distribution, kidney): 3.71 %ID/g
- tissue uptake at 0.5 h ([2]; kidney, 30 min, iv, read-out: Tissue distribution, kidney): 3.53 %ID/g
- tissue uptake at 1 h ([2]; kidney, 60 min, iv, read-out: Tissue distribution, kidney): 3.13 %ID/g
- tissue uptake at 3 h ([2]; kidney, 180 min, iv, read-out: Tissue distribution, kidney): 3.27 %ID/g
- tissue uptake at 5 min ([2]; liver, 5 min, iv, read-out: Tissue distribution, liver): 2.07 %ID/g
- tissue uptake at 0.5 h ([2]; liver, 30 min, iv, read-out: Tissue distribution, liver): 2.35 %ID/g
- tissue uptake at 1 h ([2]; liver, 60 min, iv, read-out: Tissue distribution, liver): 2.63 %ID/g
- tissue uptake at 3 h ([2]; liver, 180 min, iv, read-out: Tissue distribution, liver): 2.23 %ID/g
- tissue uptake at 5 min ([2]; lung, 5 min, iv, read-out: Tissue distribution, lung): 5.9 %ID/g
- tissue uptake at 0.5 h ([2]; lung, 30 min, iv, read-out: Tissue distribution, lung): 3.21 %ID/g
- tissue uptake at 1 h ([2]; lung, 60 min, iv, read-out: Tissue distribution, lung): 2.41 %ID/g
- tissue uptake at 3 h ([2]; lung, 180 min, iv, read-out: Tissue distribution, lung): 2.01 %ID/g
- tissue uptake at 5 min ([2]; muscle, 5 min, iv, read-out: Tissue distribution, muscle): 0.46 %ID/g
- tissue uptake at 0.5 h ([2]; muscle, 30 min, iv, read-out: Tissue distribution, muscle): 0.3 %ID/g
- tissue uptake at 1 h ([2]; muscle, 60 min, iv, read-out: Tissue distribution, muscle): 0.28 %ID/g
- tissue uptake at 3 h ([2]; muscle, 180 min, iv, read-out: Tissue distribution, muscle): 0.27 %ID/g
- tissue uptake at 5 min ([2]; spleen, 5 min, iv, read-out: Tissue distribution, spleen): 1.04 %ID/g
- tissue uptake at 0.5 h ([2]; spleen, 30 min, iv, read-out: Tissue distribution, spleen): 1.24 %ID/g
- tissue uptake at 1 h ([2]; spleen, 60 min, iv, read-out: Tissue distribution, spleen): 1.17 %ID/g
- tissue uptake at 3 h ([2]; spleen, 180 min, iv, read-out: Tissue distribution, spleen): 1.28 %ID/g
- tissue uptake at 5 min ([2]; thyroid, 5 min, iv, read-out: Tissue distribution, thyroid): 2.67 %ID/g
- tissue uptake at 0.5 h ([2]; thyroid, 30 min, iv, read-out: Tissue distribution, thyroid): 3.15 %ID/g
- tissue uptake at 1 h ([2]; thyroid, 60 min, iv, read-out: Tissue distribution, thyroid): 5.87 %ID/g
- tissue uptake at 3 h ([2]; thyroid, 180 min, iv, read-out: Tissue distribution, thyroid): 11.6 %ID/g
- brain level over time (in words) ([2]; throughout the study (5 to 180 min)): remained essentially unchanged
- Blocking study, ratio brain/blood (vesamicol receptor [3]; Group 1: radiotracer alone): 10.44
- Blocking study, ratio heart/blood (vesamicol receptor [3]; Group 1: radiotracer alone): 5.37
- Blocking study, ratio brain/blood (vesamicol receptor [3]; [6]): 3.30
- Blocking study, ratio heart/blood (vesamicol receptor [3]; [6]): 1.87
- Accumulation after pretreatment, ratio brain/blood (vesamicol receptor [4]; Group 1: vehicle pretreatment): 6.45
- Accumulation after pretreatment, ratio heart/blood (vesamicol receptor [4]; Group 1: vehicle pretreatment): 5.59
- Accumulation after pretreatment, ratio brain/blood (vesamicol receptor [4]; [7]): 2.75
- Accumulation after pretreatment, ratio heart/blood (vesamicol receptor [4]; [7]): 2.40
- tissue uptake at 0.5 h ([5]; blood, Group 1: vehicle pretreatment, read-out: Accumulation after pretreatment, blood): 0.11 %ID/g
- tissue uptake at 0.5 h ([5]; blood, Group 2: (dl)vesamicol.HCl 1.01 umol/Kg pretreatment, read-out: Accumulation after pretreatment, blood): 0.12 %ID/g
- tissue uptake at 0.5 h ([5]; brain, Group 1: vehicle pretreatment, read-out: Accumulation after pretreatment, brain): 0.68 %ID/g
- tissue uptake at 0.5 h ([5]; brain, Group 2: (dl)vesamicol.HCl 1.01 umol/Kg pretreatment, read-out: Accumulation after pretreatment, brain): 0.34 %ID/g
- tissue uptake at 0.5 h ([5]; gonads, Group 1: vehicle pretreatment, read-out: Accumulation after pretreatment, gonads): 0.15 %ID/g
- tissue uptake at 0.5 h ([5]; gonads, Group 2: (dl)vesamicol.HCl 1.01 umol/Kg pretreatment, read-out: Accumulation after pretreatment, gonads): 0.16 %ID/g
- tissue uptake at 0.5 h ([5]; heart, Group 1: vehicle pretreatment, read-out: Accumulation after pretreatment, heart): 0.59 %ID/g
- tissue uptake at 0.5 h ([5]; heart, Group 2: (dl)vesamicol.HCl 1.01 umol/Kg pretreatment, read-out: Accumulation after pretreatment, heart): 0.3 %ID/g
- tissue uptake at 0.5 h ([5]; kidney, Group 1: vehicle pretreatment, read-out: Accumulation after pretreatment, kidney): 2.45 %ID/g
- tissue uptake at 0.5 h ([5]; kidney, Group 2: (dl)vesamicol.HCl 1.01 umol/Kg pretreatment, read-out: Accumulation after pretreatment, kidney): 1.13 %ID/g
- tissue uptake at 0.5 h ([5]; liver, Group 1: vehicle pretreatment, read-out: Accumulation after pretreatment, liver): 1.91 %ID/g
- tissue uptake at 0.5 h ([5]; liver, Group 2: (dl)vesamicol.HCl 1.01 umol/Kg pretreatment, read-out: Accumulation after pretreatment, liver): 1.89 %ID/g
- tissue uptake at 0.5 h ([5]; lung, Group 1: vehicle pretreatment, read-out: Accumulation after pretreatment, lung): 2.36 %ID/g
- tissue uptake at 0.5 h ([5]; lung, Group 2: (dl)vesamicol.HCl 1.01 umol/Kg pretreatment, read-out: Accumulation after pretreatment, lung): 1.59 %ID/g
- tissue uptake at 0.5 h ([5]; muscle, Group 1: vehicle pretreatment, read-out: Accumulation after pretreatment, muscle): 0.18 %ID/g
- tissue uptake at 0.5 h ([5]; muscle, Group 2: (dl)vesamicol.HCl 1.01 umol/Kg pretreatment, read-out: Accumulation after pretreatment, muscle): 0.16 %ID/g
- tissue uptake at 0.5 h ([5]; spleen, Group 1: vehicle pretreatment, read-out: Accumulation after pretreatment, spleen): 1.05 %ID/g
- tissue uptake at 0.5 h ([5]; spleen, Group 2: (dl)vesamicol.HCl 1.01 umol/Kg pretreatment, read-out: Accumulation after pretreatment, spleen): 0.8 %ID/g
- tissue uptake at 0.5 h ([5]; thyroid, Group 1: vehicle pretreatment, read-out: Accumulation after pretreatment, thyroid): 2.62 %ID/g
- tissue uptake at 0.5 h ([5]; thyroid, Group 2: (dl)vesamicol.HCl 1.01 umol/Kg pretreatment, read-out: Accumulation after pretreatment, thyroid): 4.56 %ID/g
